Two molecules from ChEMBL document CHEMBL4507276 (2021) can be followed below.

Series [1] addresses 5-hydroxytryptamine receptor 1E (Homo sapiens) (UniProt P28566). Conditions: Compound concentration 10.0 uM; call rule not given here.
Series [2] concerns the target T1, 5-hydroxytryptamine receptor 2C (Homo sapiens) (UniProt P28335).
T1 sequence (whole entry): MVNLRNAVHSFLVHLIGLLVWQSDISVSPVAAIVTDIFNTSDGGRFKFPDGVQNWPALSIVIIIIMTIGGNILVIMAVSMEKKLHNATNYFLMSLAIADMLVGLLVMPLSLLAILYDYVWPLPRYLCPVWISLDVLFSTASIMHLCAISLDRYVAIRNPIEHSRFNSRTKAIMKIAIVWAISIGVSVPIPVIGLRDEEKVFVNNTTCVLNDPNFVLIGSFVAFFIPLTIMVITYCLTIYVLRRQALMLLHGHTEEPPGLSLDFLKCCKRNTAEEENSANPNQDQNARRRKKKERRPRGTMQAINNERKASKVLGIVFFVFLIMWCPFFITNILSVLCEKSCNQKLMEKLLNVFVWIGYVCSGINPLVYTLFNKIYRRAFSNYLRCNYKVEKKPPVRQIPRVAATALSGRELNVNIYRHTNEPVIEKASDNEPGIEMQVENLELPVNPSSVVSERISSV
Description: 5HT2CH_AGON Cerep selectivity data (BI). To be noted: filed as agonist, Compound concentration 20.0 uM.

Series [3] deals with Adenosine receptor A3 (Homo sapiens) (UniProt P0DMS8). Description: A3/H Cerep selectivity data (BI). To be noted: Compound concentration 20.0 uM.
The target of series [4] is RAC-alpha serine/threonine-protein kinase (Homo sapiens) (UniProt P31749). As to the kind of experiment: AKT1 Invitrogen selectivity data (BI). To be noted: Compound concentration 3.0 uM.
The target in series [5] is C-C chemokine receptor type 2 (Homo sapiens) (UniProt P41597). As to the kind of experiment: CCR2/H AG Cerep selectivity data (BI). Conditions: filed as agonist, Compound concentration 20.0 uM.
Series [6] has as its target Sigma non-opioid intracellular receptor 1 (Homo sapiens) (UniProt Q99720). Description: SIGMA1/HU Eurofins-Panlabs selectivity data (BI). To be noted: Compound concentration 10.0 uM.
Series [7] concerns the target Ephrin type-A receptor 2 (Homo sapiens) (UniProt P29317). Description: EPHA2 Invitrogen selectivity data (BI). To be noted: Compound concentration 3.0 uM.
In series [8] the target is Arachidonate 5-lipoxygenase-activating protein (Homo sapiens, UniProt P20292). As to the kind of experiment: Functional inhibition in mouse whole blood. Format: tissue-based. Conditions: target entry is the homologue from another species.
For series [9], the target named is Ephrin type-A receptor 7 (Homo sapiens) (UniProt Q15375). Description: EPHA7 Invitrogen selectivity data (BI). To be noted: Compound concentration 3.0 uM.
In series [10] the target is Serine/threonine-protein kinase PAK 2 (Homo sapiens) (UniProt Q13177). Description: PAK2 Invitrogen selectivity data (BI). Conditions: Compound concentration 3.0 uM.
Series [11] concerns the target T2, Muscarinic acetylcholine receptor M1 (Homo sapiens) (UniProt P11229).
T2 sequence (whole entry): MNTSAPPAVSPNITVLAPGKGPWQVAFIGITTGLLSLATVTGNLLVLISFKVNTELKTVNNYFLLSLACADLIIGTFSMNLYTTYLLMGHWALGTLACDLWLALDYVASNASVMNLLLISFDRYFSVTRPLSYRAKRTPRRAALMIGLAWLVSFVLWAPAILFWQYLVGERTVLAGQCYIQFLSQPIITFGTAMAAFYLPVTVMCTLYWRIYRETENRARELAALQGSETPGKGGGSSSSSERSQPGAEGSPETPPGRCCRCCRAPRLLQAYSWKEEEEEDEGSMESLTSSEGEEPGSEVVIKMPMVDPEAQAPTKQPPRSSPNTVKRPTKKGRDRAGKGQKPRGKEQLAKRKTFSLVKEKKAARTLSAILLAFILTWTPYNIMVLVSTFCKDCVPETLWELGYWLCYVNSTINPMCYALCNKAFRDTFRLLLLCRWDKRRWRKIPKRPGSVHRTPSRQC
To be noted: Compound concentration 10.0 uM.

The target of series [12] is T3, Tyrosine-protein kinase ZAP-70 (Homo sapiens) (UniProt P43403).
T3 sequence (whole entry): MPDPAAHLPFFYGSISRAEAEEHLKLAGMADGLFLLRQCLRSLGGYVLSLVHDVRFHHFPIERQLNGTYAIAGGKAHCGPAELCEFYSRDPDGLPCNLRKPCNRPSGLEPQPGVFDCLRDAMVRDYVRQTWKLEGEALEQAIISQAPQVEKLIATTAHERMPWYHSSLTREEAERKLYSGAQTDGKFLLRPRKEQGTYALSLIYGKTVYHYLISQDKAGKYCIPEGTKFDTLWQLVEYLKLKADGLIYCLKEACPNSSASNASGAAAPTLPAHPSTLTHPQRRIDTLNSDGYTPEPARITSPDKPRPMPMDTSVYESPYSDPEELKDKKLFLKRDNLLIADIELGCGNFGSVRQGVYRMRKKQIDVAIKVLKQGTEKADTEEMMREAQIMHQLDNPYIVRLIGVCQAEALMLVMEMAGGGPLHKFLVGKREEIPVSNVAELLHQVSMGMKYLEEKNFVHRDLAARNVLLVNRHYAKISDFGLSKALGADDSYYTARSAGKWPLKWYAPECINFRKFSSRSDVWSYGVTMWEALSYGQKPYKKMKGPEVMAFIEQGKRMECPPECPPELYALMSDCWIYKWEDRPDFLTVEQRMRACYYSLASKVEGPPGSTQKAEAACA
Description: ZAP70 Invitrogen selectivity data (BI). To be noted: Compound concentration 3.0 uM.

In series [13] the target is Dual specificity protein kinase CLK1 (Homo sapiens) (UniProt P49759). Description: CLK1 Invitrogen selectivity data (BI). To be noted: Compound concentration 3.0 uM.
A further series concerns the target hERG (KCNH2) (Homo sapiens, UniProt Q12809). Description: K+/HERG Eurofins-Panlabs selectivity data (BI). Conditions: compound concentration 10 uM, read-out: % Ctrl.
Series [14] addresses Phosphorylase b kinase gamma catalytic chain, skeletal muscle/heart isoform (Homo sapiens) (UniProt Q16816). As to the kind of experiment: PHKG1 Invitrogen selectivity data (BI). To be noted: Compound concentration 3.0 uM.
Series [15] concerns the target Glutamate NMDA receptor (Rattus norvegicus) (UniProt P35439+Q00959+Q00960+Q00961+Q62645+Q8VHN2+Q9R1M7). As to the kind of experiment: PCP/R Cerep selectivity data (BI). Format: protein-complex assay. Conditions: Compound concentration 20.0 uM.
For series [16], the system named is Tyrosine-protein kinase ABL1 (Homo sapiens), P00519 [G250E]. As to the kind of experiment: ABL1 G250E Invitrogen selectivity data (BI). Conditions: Compound concentration 3.0 uM.
Series [17] deals with PI3-kinase p110-alpha/p85-alpha (Homo sapiens) (UniProt P27986+P42336). Description: PIK3CAPIK3R1 Invitrogen selectivity data (BI). Conditions: Compound concentration 3.0 uM. Format: protein-complex assay.
For series [18], the target named is G protein-coupled receptor kinase 4 (Homo sapiens) (UniProt P32298). Description: GRK4 Invitrogen selectivity data (BI). Conditions: Compound concentration 3.0 uM.
Series [19] deals with Serine/threonine-protein kinase WNK2 (Homo sapiens) (UniProt Q9Y3S1). As to the kind of experiment: WNK2 Invitrogen selectivity data (BI). Conditions: Compound concentration 3.0 uM.
In series [20] the target is Leucine-rich repeat serine/threonine-protein kinase 2 (Homo sapiens) (UniProt Q5S007). As to the kind of experiment: LRRK2 Invitrogen selectivity data (BI). To be noted: Compound concentration 3.0 uM.
The target of series [21] is Casein kinase I isoform gamma-3 (Homo sapiens) (UniProt Q9Y6M4). As to the kind of experiment: CSNK1G3 Invitrogen selectivity data (BI). Conditions: Compound concentration 3.0 uM.
Series [22] addresses High affinity choline transporter 1 (Homo sapiens) (UniProt Q9GZV3). As to the kind of experiment: CHT1/H Cerep selectivity data (BI). Conditions: Compound concentration 20.0 uM.
Series [23] addresses Beta-3 adrenergic receptor (Homo sapiens) (UniProt P13945). Description: BETA3/HU Cerep selectivity data (BI). To be noted: filed as antagonist, Compound concentration 20.0 uM.

Sequence of G protein-coupled receptor kinase 4 (Homo sapiens) (P32298 whole entry, looked up): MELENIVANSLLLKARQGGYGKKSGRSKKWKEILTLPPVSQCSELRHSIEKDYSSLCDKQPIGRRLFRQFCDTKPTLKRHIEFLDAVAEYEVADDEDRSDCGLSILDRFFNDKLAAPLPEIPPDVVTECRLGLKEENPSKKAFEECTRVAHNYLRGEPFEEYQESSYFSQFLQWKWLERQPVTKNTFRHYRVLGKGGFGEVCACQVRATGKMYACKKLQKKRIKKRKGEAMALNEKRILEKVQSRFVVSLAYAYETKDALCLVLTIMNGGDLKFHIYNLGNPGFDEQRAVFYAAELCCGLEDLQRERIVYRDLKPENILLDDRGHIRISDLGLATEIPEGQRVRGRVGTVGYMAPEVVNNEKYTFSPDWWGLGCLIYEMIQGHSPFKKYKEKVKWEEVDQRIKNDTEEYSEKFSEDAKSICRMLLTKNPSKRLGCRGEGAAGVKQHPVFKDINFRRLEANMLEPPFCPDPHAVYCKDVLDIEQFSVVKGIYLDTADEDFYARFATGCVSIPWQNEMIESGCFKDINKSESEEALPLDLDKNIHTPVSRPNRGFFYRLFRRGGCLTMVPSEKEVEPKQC
Sequence of High affinity choline transporter 1 (Homo sapiens) (Q9GZV3 whole entry): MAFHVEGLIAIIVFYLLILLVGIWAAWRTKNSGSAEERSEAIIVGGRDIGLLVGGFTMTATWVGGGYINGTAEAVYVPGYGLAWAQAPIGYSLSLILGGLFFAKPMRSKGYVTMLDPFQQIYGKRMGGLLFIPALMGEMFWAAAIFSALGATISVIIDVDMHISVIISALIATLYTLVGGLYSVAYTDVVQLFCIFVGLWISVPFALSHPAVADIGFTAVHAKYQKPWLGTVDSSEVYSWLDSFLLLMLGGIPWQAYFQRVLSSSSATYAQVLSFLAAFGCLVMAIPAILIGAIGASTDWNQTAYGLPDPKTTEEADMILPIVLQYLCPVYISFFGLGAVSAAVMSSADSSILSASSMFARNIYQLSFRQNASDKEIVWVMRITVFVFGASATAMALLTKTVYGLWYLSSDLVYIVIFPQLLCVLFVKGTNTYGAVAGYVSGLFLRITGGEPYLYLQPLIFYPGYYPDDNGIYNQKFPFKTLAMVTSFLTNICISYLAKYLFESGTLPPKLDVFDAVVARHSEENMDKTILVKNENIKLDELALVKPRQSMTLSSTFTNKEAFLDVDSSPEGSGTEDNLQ
Sequence of 5-hydroxytryptamine receptor 1E (Homo sapiens) (P28566 whole entry): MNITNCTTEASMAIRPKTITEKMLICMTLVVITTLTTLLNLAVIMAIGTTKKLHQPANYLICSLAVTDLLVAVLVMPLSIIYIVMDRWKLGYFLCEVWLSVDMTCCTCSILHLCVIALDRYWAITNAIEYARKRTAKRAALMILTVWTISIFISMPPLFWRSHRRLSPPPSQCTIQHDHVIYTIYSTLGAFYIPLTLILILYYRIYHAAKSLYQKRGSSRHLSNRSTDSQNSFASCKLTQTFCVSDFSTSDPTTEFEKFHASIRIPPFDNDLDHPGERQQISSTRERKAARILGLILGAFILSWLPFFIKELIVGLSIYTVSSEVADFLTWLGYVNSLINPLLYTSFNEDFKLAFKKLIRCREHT
Sequence of Serine/threonine-protein kinase PAK 2 (Homo sapiens) (Q13177 whole entry): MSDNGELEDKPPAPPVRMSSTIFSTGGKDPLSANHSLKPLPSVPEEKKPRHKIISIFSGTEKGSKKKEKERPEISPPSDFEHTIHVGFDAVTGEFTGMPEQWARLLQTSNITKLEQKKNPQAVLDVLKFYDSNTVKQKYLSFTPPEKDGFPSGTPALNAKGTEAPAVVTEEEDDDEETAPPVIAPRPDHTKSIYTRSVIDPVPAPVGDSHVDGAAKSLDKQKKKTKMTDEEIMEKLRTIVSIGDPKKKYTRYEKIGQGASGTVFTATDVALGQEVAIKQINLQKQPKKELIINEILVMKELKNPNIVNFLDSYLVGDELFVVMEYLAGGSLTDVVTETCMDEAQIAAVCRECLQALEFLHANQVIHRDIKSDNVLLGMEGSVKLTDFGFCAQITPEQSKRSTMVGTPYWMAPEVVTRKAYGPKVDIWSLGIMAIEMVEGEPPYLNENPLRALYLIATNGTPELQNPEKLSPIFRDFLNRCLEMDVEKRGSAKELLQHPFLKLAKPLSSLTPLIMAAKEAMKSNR
Sequence of Serine/threonine-protein kinase WNK2 (Homo sapiens) (Q9Y3S1 whole entry): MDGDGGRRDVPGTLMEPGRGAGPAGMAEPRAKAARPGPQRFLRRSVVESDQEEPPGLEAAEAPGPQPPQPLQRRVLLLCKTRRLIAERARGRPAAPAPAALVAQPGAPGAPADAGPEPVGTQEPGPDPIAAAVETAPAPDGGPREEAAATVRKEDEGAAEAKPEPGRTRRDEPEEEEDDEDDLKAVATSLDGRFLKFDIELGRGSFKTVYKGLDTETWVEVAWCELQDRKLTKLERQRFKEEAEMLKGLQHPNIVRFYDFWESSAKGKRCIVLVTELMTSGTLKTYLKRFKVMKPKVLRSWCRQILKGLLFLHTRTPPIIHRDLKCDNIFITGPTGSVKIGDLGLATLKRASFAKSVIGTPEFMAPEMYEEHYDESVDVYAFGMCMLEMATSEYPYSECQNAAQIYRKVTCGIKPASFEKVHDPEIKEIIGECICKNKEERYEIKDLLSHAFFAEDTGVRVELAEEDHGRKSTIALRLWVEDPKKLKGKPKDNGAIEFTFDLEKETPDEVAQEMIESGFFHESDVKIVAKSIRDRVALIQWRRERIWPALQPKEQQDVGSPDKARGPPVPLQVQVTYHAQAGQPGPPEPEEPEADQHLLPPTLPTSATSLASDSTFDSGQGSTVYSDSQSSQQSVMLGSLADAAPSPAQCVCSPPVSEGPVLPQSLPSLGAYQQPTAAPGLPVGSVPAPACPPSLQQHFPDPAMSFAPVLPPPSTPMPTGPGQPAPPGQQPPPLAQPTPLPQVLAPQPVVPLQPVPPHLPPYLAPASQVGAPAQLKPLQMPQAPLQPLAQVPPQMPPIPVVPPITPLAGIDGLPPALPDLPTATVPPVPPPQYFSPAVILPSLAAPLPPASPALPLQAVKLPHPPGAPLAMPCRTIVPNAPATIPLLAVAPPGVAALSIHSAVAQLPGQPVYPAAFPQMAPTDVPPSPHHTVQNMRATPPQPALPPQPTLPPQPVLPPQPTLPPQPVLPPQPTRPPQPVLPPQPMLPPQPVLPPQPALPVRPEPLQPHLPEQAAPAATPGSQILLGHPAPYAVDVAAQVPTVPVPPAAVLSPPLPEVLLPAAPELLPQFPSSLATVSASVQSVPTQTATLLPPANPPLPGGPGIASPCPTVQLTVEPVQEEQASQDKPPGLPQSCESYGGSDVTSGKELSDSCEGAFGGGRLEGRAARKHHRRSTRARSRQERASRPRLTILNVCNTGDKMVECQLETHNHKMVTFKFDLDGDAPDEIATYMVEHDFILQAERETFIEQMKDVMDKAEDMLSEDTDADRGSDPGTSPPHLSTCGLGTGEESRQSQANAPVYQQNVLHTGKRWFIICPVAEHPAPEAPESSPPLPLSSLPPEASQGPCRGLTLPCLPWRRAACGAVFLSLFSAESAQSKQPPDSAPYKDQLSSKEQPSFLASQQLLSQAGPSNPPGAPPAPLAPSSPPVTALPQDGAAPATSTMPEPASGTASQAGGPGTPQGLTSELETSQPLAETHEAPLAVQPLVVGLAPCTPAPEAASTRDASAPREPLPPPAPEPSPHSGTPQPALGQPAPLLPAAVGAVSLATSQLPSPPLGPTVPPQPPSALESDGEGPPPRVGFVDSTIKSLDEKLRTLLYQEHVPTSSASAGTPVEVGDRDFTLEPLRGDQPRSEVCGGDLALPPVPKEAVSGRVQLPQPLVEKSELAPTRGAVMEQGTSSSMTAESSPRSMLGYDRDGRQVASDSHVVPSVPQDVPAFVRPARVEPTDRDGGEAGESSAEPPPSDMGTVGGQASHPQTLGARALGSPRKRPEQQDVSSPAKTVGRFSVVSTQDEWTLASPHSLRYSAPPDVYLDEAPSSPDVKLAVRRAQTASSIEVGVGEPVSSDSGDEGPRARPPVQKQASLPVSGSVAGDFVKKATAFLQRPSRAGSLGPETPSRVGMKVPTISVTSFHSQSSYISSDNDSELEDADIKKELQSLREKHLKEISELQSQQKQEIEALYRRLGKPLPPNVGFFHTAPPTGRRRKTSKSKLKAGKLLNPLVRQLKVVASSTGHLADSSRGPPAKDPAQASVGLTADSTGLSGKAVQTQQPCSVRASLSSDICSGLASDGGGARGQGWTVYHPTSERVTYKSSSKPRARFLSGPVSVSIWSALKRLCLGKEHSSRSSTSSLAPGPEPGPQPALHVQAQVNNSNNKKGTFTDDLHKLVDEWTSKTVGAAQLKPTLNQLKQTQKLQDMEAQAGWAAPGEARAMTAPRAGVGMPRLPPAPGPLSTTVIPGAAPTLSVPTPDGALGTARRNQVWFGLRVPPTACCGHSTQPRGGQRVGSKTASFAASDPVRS
Sequence of RAC-alpha serine/threonine-protein kinase (Homo sapiens) (P31749 whole entry): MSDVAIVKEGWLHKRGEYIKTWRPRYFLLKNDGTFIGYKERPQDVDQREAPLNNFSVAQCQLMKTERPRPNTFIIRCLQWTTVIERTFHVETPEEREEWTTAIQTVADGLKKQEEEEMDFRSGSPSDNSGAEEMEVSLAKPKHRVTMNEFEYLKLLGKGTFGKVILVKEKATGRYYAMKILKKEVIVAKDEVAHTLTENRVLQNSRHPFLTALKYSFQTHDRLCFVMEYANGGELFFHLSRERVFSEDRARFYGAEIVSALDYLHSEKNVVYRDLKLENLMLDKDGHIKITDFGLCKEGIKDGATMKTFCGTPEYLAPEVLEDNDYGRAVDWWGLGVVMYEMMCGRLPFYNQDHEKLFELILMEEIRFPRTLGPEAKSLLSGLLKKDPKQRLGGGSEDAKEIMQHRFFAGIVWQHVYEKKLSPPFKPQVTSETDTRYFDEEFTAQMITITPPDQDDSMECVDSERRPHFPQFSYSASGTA
Sequence of Sigma non-opioid intracellular receptor 1 (Homo sapiens) (Q99720 whole entry): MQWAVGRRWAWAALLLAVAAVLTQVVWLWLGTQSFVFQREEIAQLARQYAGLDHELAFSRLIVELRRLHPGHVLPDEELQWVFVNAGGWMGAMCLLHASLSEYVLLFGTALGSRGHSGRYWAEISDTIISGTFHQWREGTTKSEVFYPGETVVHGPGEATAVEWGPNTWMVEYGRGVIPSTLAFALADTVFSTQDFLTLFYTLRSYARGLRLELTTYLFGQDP

By inhibition is commonly meant the change of the read-out against control, counted positive when it falls. With `CN(C)C(=O)Cn1cc(-c2nc(C3(c4ccc(-c5cnc(N)nc5)cc4)CC3)no2)cn1` [BI 0153], the inhibition in [1] was -7.33%.

One may read the IC50 as the concentration at which inhibition is half-maximal. High values mean weaker potency in that assay, low ones greater potency in that assay. For the molecule `CN(C)C(=O)Cn1cc(-c2nc([C@@](C)(c3ccc(-c4cnc(N)nc4)cc3)C3CC3)no2)cn1` [BI 665915], the residual activity was 90% in series [2]; 64% in series [3]; 99% in series [4]; 109% in [5]; 108% in series [6]; 99% in series [7]. The residual activity in series [9] is 78%; in series [10], 100%; in [12], 96%; in [13], 96.5%; in [14], 97.5%; in series [15], 100%. In addition, the residual activity is 80% in [16]; 104% in [17]; 102% in series [18]; 96% in series [19]; 96% in series [20]; 99% in [21]. Besides, the residual activity in series [22] was 101%; in series [23], 86%. In series [8], this molecule had a half-maximal inhibitory concentration (IC50) of 4.8 µM. Moreover, the inhibition in series [11] was -4.93%. For the same molecule, the activity at 10 µM on hERG (KCNH2) is recorded as 90% (not active).
